Experimental findings from article PMC11181322, “Copper(II) Complexes with Isomeric Morpholine-Substituted 2-Formylpyridine Thiosemicarbazone Hybrids as Potential Anticancer Drugs Inhibiting Both Ribonucleotide Reductase and Tubulin Polymerization: The Morpholine Position Matters” (Journal of Medicinal Chemistry, 2024) are described below.

Data set [1] is described as follows: Cyclic voltammetry of copper(II) complexes in DMSO/n-Bu4NPF6. Format: physicochemical. As to conditions: for Epa^1: first anodic peak potential vs Fc+/Fc; for Epa^1 / Epa^2: 100 mV s^–1; for Epa^2: second anodic peak potential vs Fc+/Fc; for E1/2^red: vs Fc+/Fc, scan rate 100 mV s^–1. As for the experimental part: The redox properties of the copper(II) complexes 3–6 were investigated by electrochemical, EPR, and UV–vis spectroelectrochemical measurements. […] While the half-wave reduction potentials E1/2^red for complexes 3–5 were almost the same (−0.82 V vs Fc^+/Fc), the E1/2^red for 6 is by 0.07 V more positive (−0.75 V vs Fc^+/Fc), as summarized in Table 4. The corresponding proligands are not redox active in the cathodic part (not shown).
Cyclic voltammetric experiments with 0.5 mM solutions of copper(II) complexes 3–6 in 0.1 M nBu4NPF6 (puriss quality from Fluka; dried under reduced pressure at 70 °C for 24 h before use) as supporting electrolyte in DMSO (SeccoSolv max. 0.025% H2O, Merck) were performed under Ar using a three-electrode arrangement with Pt wire as the counter electrode and Ag wire as the pseudoreference electrode. Glassy carbon or Pt wire served as the working electrode. Ferrocene purchased from Sigma-Aldrich was used as the internal potential standard without further purification. All potentials in voltammetric studies were quoted vs ferricenium/ferrocene (Fc^+/Fc) as the redox couple. A Heka PG310USB (Lambrecht, Germany) potentiostat with a PotMaster 2.73 software package served for the potential control in voltammetric studies. In situ ultraviolet–visible-near-infrared (UV–vis–NIR) spectroelectrochemical measurements were performed on a spectrometer (Avantes, Model AvaSpec-2048 × 14-USB2 in the spectroelectrochemical cell kit ([…]3) with the Pt-microstructured honeycomb working electrode, purchased from Pine Research Instrumentation. The cell was positioned in the CUV-UV Cuvette Holder (Ocean Optics) connected to the diode array UV–vis-NIR spectrometer by optical fibers. UV–vis-NIR spectra were processed using the AvaSoft 7.7 software package. Halogen and deuterium lamps were used as light sources (Avantes, Model AvaLight-DH-S-BAL).

A short description of data set [2]: Redox reaction of the copper(II) complexes with GSH (UV–vis, anoxic). Format: physicochemical. To be noted: pH 7.4 (50 mM HEPES); ccomplex = 25 μM; cGSH = 1.25 mM; pure water; 25 °C. The source says:
The direct reduction of the copper(II) complexes with the antioxidant GSH was investigated in anoxic aqueous solution at pH 7.4 by UV–vis spectrophotometry. At this pH, the complex [Cu(HL)]^+ is assumed to predominate according to the speciation studies (vide supra). The spectral changes were monitored in the wavelength range 250–550 nm by using a large excess of GSH (50 equiv). In this wavelength range, the spectral changes are due to the absorption of the metal complex and the ligand.
These changes imply that, after reduction in the presence of excess GSH, the generated copper(I) complex is not stable and liberates the free TSC ligand. […] The time-dependent absorbance changes are shown for all the studied systems in Figure 4b. The observed rate constants (kobs) were calculated (Table 2) as a semiquantitative description of the reaction kinetics. […] The obtained kobs values fall into the range for Triapine (0.10 min^–1), 2-pyridinecarboxaldehyde TSC (0.041 min^–1), and N-monomethylated N-methyl-Triapine (0.077 min^–1), measured under similar conditions.[67] To find out whether this slightly different kinetics for 6 and 3–5 is in accordance with their reduction potentials, cyclic voltammetry was performed.
The redox reaction of the copper(II) complexes with GSH and ascorbic acid was studied at 25.0 ± 0.1 °C on a Hewlett-Packard 8452A diode array spectrophotometer using a special, tightly closed tandem cuvette (Hellma Tandem Cell, 238-QS). The reactants were separated until the reaction was triggered. Both isolated pockets of the cuvette were completely deoxygenated by bubbling a stream of Ar for 10 min before mixing the reactants. Spectra were recorded before and then immediately after the mixing, and changes were followed until no further absorbance change was observed. One of the isolated pockets contained the reducing agent, and the other contained the complex. Their final concentrations were 1250 and 25 μM, respectively. The pH of all the solutions was adjusted to 7.40 by 50 mM HEPES buffer. The ionic strength of the solution was 0.1 M (KCl). The stock solutions of the reducing agents and the complexes were freshly prepared every day. During the calculations, the absorbance (A) – time (t) curves were fitted and analyzed at the λmax of the complex. (A0 – Afinal) × e^(−a×t) + Afinal was the fitting equation used, where the A0, Afinal, and a parameters were refined and accepted at the minimal value of the weighted sum of squared residuals (difference between the measured and calculated absorbance values) at the given wavelength. Then, observed rate constants (kobs) of the redox reaction were obtained from the data points of the simulated absorbance–time curves as the slope of the ln(A/A0) vs time plots.

For data set [3], the system named is MES-SA/Dx5 cells. In words: Fluorescent protein-based cytotoxicity assay, MES-SA/Dx5. As to conditions: for IC50: 120 h, ± SD, n = 3; for SR, selectivity ratio IC50 (MES-SA)/IC50 (MES-SA/Dx5): in the absence of TQ. The format is cell-based, human. The method in brief: (§1)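 Fluorescent-protein-expressing lines (MES-SA mCherry, MES-SA/Dx5 eGFP; resistance maintained with 500 nM doxorubicin a week before use) seeded at 2500 cells/well; next day serial compound dilutions added with or without 0.4 μM tariquidar. IC50 from mean pIC50.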

The subject of data set [4] is purified tubulin. In words: Inhibition of polymerization of purified tubulin. The format is biochemical. To be noted: read-out: inhibition of tubulin IC50 ± SD.
Data set [5] has as its system MES-SA cells. Kind of data set: Fluorescent protein-based cytotoxicity assay, MES-SA. The format is cell-based, human. To be noted: 120 h; ± SD; n = 3. Put shortly: as §1

By IC50 is commonly meant the point on the concentration scale where inhibition reaches its midpoint. As for `Cc1cc(NC(=NN=Cc2cc(CN3CCOCC3)ccn2)[S][Cu][Cl])cc(C)c1O` [complex 4, [Cu(HL^4)Cl]·1.5H2O], in data set [1], the “Epa^1” value was “+0.31 V”, the “Epa^2” value is recorded as “+0.77 V” and the “E1/2^red” value was “–0.82 V”. The “kobs, redox reaction with GSH” value in data set [2] worked out at 0.079 ± 0.019 min^–1. Further, in data set [3], half-maximal inhibition (IC50) was put at 5.8 ± 0.1 µM and the “SR, selectivity ratio IC50 (MES-SA)/IC50 (MES-SA/Dx5)” value (from here on “SR, selectivity ratio IC50”) is given as 3.33. Moreover, the IC50 in data set [4] came out at 15 ± 1 µM. Further, the IC50 in data set [5] was 19.2 ± 1.7 µM.

For the compound `Cc1cc(NC(=NN=Cc2ccc(CN3CCOCC3)cn2)[S][Cu][Cl])cc(C)c1O` [complex 5, [Cu(HL^5)Cl]·2.5H2O], in data set [1], the “Epa^1” value is “+0.29 V”, the “Epa^2” value was “+0.69 V” and the “E1/2^red” value is “–0.82 V”. Besides, in data set [2], the “kobs, redox reaction with GSH” value was 0.058 ± 0.010 min^–1. Besides, in data set [3], the IC50 amounted to 8.1 ± 2 µM and the “SR, selectivity ratio IC50” value was 3.81. In addition, the IC50 in data set [4] was determined as 15 ± 0.4 µM. The same compound yielded an IC50 in data set [5] of 31 ± 6.2 µM.

`Cc1cc(NC(=NN=Cc2cccc(CN3CCOCC3)n2)[S][Cu][Cl])cc(C)c1O` [complex 6, [Cu(HL^6)Cl]·H2O]: the “Epa^1” value in data set [1] was “+0.26 V”. Further, in data set [1], the “Epa^2” value is “+0.66 V”. The “kobs, redox reaction with GSH” value in data set [2] is listed as 0.165 ± 0.011 min^–1. Also, the IC50 in data set [3] amounted to 1.4 ± 0.2 µM; in data set [4] it was 5 ± 0.3 µM; in data set [5], 0.29 µM. Also, the “SR, selectivity ratio IC50” value in data set [3] is listed as 0.21.
